Target: T1, mouse Tas2r117 (Mus musculus, UniProt Q7M715)
T1 construct: expressed in transfected cells; host or cells: HEK293T-Gα16gust44
T1 sequence (Q7M715 1-330): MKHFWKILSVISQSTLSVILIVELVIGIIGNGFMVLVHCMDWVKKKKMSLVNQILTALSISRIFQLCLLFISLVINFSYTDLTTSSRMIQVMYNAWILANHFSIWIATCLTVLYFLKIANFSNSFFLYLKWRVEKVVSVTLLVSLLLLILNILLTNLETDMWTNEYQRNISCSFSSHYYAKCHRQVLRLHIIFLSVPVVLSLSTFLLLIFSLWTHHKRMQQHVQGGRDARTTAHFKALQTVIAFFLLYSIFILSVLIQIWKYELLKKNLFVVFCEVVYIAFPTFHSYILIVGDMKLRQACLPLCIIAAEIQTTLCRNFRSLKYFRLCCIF
Assay: Calcium imaging assay (FLIPR), HEK293T-Gα16gust44 cells transfected with mouse Tas2r117
Format: cell-based
Conditions: for Δ F/F: Tas2r117; for RLU: sheet Tas2r117, time trace
Description: This set of bile acids was chosen because of their commercial availability in high purities, their diversity within the class of bile acids and their previous detection and quantitation in human blood. Stock solutions were prepared in DMSO.
As basal growth medium for the HEK293T-Gα16gust44 cell line[17],[59] served Dulbecco’s modified eagle medium (DMEM) (Thermo Fisher Scientific, Darmstadt, Germany) supplemented with 10 % fetal bovine serum (Sigma-Aldrich, Steinheim, Germany), 2 mM L-glutamine (Sigma-Aldrich, Steinheim, Germany), 100 units/ml penicillin (Sigma Aldrich, Steinheim, Germany) and 100 µg/ml streptomycin (Sigma Aldrich, Steinheim, Germany). Growth conditions were 37 °C, 5 % CO2 and saturated air-humidity[60].
HEK293T-Gα16gust44 cells were seeded on poly-D-lysine (10 µg/ml) coated 96-well plates to reach a confluence of 40-60 % the next day. For transient transfection 150 ng of plasmid DNA containing the receptor of interest and 0.3 µl lipofectamine 2000 (Thermo Fisher Scientific, Darmstadt, Germany) per well were used and transfection took place according to the manual of lipofectamine 2000. […] The empty vector DNA (mock) was transfected as negative control[14],[41].
Cells were loaded using the calcium-sensitive fluorescent dye Fluo-4-AM (Abcam, Cambridge, Great Britain) in the presence of 2.5 mM probenecid (Sigma-Aldrich, Steinheim, Germany) the day after transfection[13],[41]. 1 h after loading, cells were washed with C1 buffer using a BioTek Cell Washer, incubated in the dark for half an hour and washed again. For automated agonist application and measurement of fluorescence changes, a FLIPR^TETRA device (Molecular Devices, San José, United States) was used. Viability of cells was tested by application of 100 nM Somatostatin 14 (Bachem, Bubendorf, Switzerland)[42].
Measured data were negative control corrected by subtracting the signal of the mock-transfected cells and exported to Microsoft Excel using the FLIPR software ScreenWorks 4.2. In Microsoft Excel software, standardization of maximum fluorescence intensities to the basal fluorescence and normalization to the buffer-only control was done to calculate the relative fluorescence changes (ΔF/F).
Initial screening experiments performed in duplicate wells were confirmed by at least one replication and representative traces were selected for display. All dose-response relationships were determined by three independent experiments (biological replicates) performed in duplicates (technical replicates). Threshold concentrations, defined as lowest substance concentrations leading to statistically significant elevated fluorescence changes in receptor-transfected cells compared with empty vector-transfected cells, were determined using SigmaPlot with Student’s t-test to evaluate statistical significance (p < 0.01).

For `C[C@H](CCC(=O)NCCS(=O)(=O)O)[C@H]1CC[C@H]2[C@@H]3[C@H](O)C[C@@H]4C[C@H](O)CC[C@]4(C)[C@H]3C[C@H](O)[C@]12C` [Taurocholic Acid, taurocholic acid], the EC50 was 37.4 ± 7.3 µM, the “Δ F/F” value (conc. 0,01 mM) was 0.02164 and the “Δ F/F” value (conc. 0,1 mM) was 0.0925. For the same compound, the “Δ F/F” value (conc. 0,03 mM) was 0.05976, the “Δ F/F” value (conc. 0,3 mM) was 0.1209 and the “Δ F/F” value (conc. 0,0003 mM) was -0.001001. The “Δ F/F” value (conc. 0,001 mM) was -0.004431, the “Δ F/F” value (conc. 0,003 mM) was 0.00222 and the RLU (Time (s) 0) was 0 RLU. For the same compound, the RLU (Time (s) 2) was 37 RLU, the RLU (Time (s) 4) was -4.077 RLU and the RLU (Time (s) 6) was 12.5668 RLU. It also gave an RLU (Time (s) 8) of 5.638 RLU, an RLU (Time (s) 12) of -15.6594 RLU and an RLU (Time (s) 14) of 17.1601 RLU. For the same compound, the RLU (Time (s) 16) was -10.5322 RLU, the RLU (Time (s) 18) was -8.953 RLU and the RLU (Time (s) 18.797) was 34.4566 RLU. It also gave an RLU (Time (s) 20.797) of 16.7527 RLU, an RLU (Time (s) 22.797) of -7.054 RLU and an RLU (Time (s) 24.797) of 38.2926 RLU. The RLU (Time (s) 26.797) was 125.403 RLU, the RLU (Time (s) 28.797) was 141.128 RLU and the RLU (Time (s) 30.797) was 183.922 RLU. The RLU (Time (s) 32.797) was 250.112 RLU, the RLU (Time (s) 34.797) was 267.824 RLU and the RLU (Time (s) 36.797) was 315.731 RLU. For the same compound, the RLU (Time (s) 38.797) was 324.81 RLU, the RLU (Time (s) 40.797) was 359.212 RLU and the RLU (Time (s) 42.797) was 402.392 RLU. The RLU (Time (s) 44.797) was 440.644 RLU, the RLU (Time (s) 46.797) was 454.758 RLU and the RLU (Time (s) 48.797) was 463.447 RLU. For the same compound, the RLU (Time (s) 50.797) was 471.258 RLU, the RLU (Time (s) 52.797) was 487.155 RLU and the RLU (Time (s) 54.797) was 505.642 RLU. It also gave an RLU (Time (s) 56.797) of 516.341 RLU, an RLU (Time (s) 58.797) of 527.833 RLU and an RLU (Time (s) 60.797) of 539.947 RLU. It also gave an RLU (Time (s) 62.797) of 536.466 RLU, an RLU (Time (s) 64.797) of 575.129 RLU and an RLU (Time (s) 66.797) of 570.621 RLU. For the same compound, the RLU (Time (s) 68.797) was 568.562 RLU, the RLU (Time (s) 70.797) was 591.97 RLU and the RLU (Time (s) 72.797) was 606.798 RLU. For the same compound, the RLU (Time (s) 74.797) was 593.706 RLU, the RLU (Time (s) 76.797) was 614.892 RLU and the RLU (Time (s) 78.797) was 632.141 RLU. The RLU (Time (s) 80.797) was 632.141 RLU, the RLU (Time (s) 82.797) was 632.241 RLU and the RLU (Time (s) 84.797) was 611.445 RLU. The RLU (Time (s) 86.797) was 626.947 RLU, the RLU (Time (s) 88.797) was 643.242 RLU and the RLU (Time (s) 90.797) was 605.466 RLU. It also gave an RLU (Time (s) 92.797) of 611.522 RLU, an RLU (Time (s) 94.797) of 620.11 RLU and an RLU (Time (s) 96.797) of 645.547 RLU. The RLU (Time (s) 98.797) was 644.046 RLU, the RLU (Time (s) 100.797) was 637.565 RLU and the RLU (Time (s) 102.797) was 626.02 RLU. For the same compound, the RLU (Time (s) 104.797) was 634.671 RLU, the RLU (Time (s) 106.797) was 616.97 RLU and the RLU (Time (s) 108.797) was 624.712 RLU. For the same compound, the RLU (Time (s) 110.797) was 625.807 RLU, the RLU (Time (s) 112.797) was 626.586 RLU and the RLU (Time (s) 114.797) was 603.263 RLU. For the same compound, the RLU (Time (s) 116.797) was 606.551 RLU, the RLU (Time (s) 118.797) was 596.327 RLU and the RLU (Time (s) 120.797) was 576.654 RLU. For the same compound, the RLU (Time (s) 122.797) was 563.677 RLU, the RLU (Time (s) 124.797) was 585.101 RLU and the RLU (Time (s) 126.797) was 566.056 RLU. For the same compound, the RLU (Time (s) 128.797) was 584.636 RLU, the RLU (Time (s) 130.797) was 552.659 RLU and the RLU (Time (s) 132.797) was 568.02 RLU. It also gave an RLU (Time (s) 134.797) of 561.297 RLU, an RLU (Time (s) 136.797) of 551.223 RLU and an RLU (Time (s) 137.562) of 556.479 RLU. It also gave an RLU (Time (s) 143.578) of 502.769 RLU, an RLU (Time (s) 149.578) of 498.126 RLU and an RLU (Time (s) 155.578) of 490.146 RLU. For the same compound, the RLU (Time (s) 161.578) was 459.867 RLU, the RLU (Time (s) 167.578) was 446.745 RLU and the RLU (Time (s) 173.578) was 415.03 RLU. It also gave an RLU (Time (s) 179.578) of 413.791 RLU, an RLU (Time (s) 191.578) of 382.098 RLU and an RLU (Time (s) 197.578) of 382.449 RLU. For the same compound, the RLU (Time (s) 209.578) was 344.754 RLU, the RLU (Time (s) 221.578) was 256.376 RLU and the RLU (Time (s) 233.578) was 235.774 RLU. It also gave an RLU (Time (s) 239.578) of 212.664 RLU, an RLU (Time (s) 245.578) of 220.667 RLU and an RLU (Time (s) 293.578) of 147.781 RLU. The RLU (Time (s) 299.578) was 155.364 RLU, the RLU (Time (s) 305.578) was 177.719 RLU and the RLU (Time (s) 311.578) was 178.93 RLU. It also gave an RLU (Time (s) 317.578) of 167.01 RLU, an RLU (Time (s) 323.578) of 136.818 RLU and an RLU (Time (s) 329.578) of 148.504 RLU. The RLU (Time (s) 335.578) was 153.255 RLU, the RLU (Time (s) 341.578) was 110.601 RLU and the RLU (Time (s) 347.578) was 112.243 RLU. For the same compound, the RLU (Time (s) 353.578) was 94.0464 RLU, the RLU (Time (s) 359.578) was 105.186 RLU and the “Activation threshold concentration Tas2r117” value (p < 0.01 vs empty vector) was 30 µM.

Source: paper PMC10247784, “Physiological activation of human and mouse bitter taste receptors by bile acids” (Communications Biology, 2023)
